Test results reported in PMC7926264 (Clinical cancer research : an official journal of the …, 2020).

Experiments:
[1] = tested on: CUTO17 cells (EGFR exon 20 insertion p.N771_773dupNPH); experiment: cells; conditions: Homo sapiens, CUTO17, 72 h, read-out: IC50 proliferation
[2] = tested on: EGFR phosphorylation (pEGFR) in CUTO14, CUTO17, and CUTO18
[3] = tested on: H2170 cells (HER2 amp); experiment: cells; format: cell-based; conditions: Homo sapiens, NCI-H2170, 72 h, read-out: IC50 proliferation
[4] = tested on: Calu-3 cells (HER2 amp); experiment: cells; format: cell-based; conditions: Homo sapiens, Calu-3, 72 h, read-out: IC50 proliferation
[5] = tested on: H1781 cells (HER2 ex20ins); experiment: cells; format: cell-based; conditions: Homo sapiens, NCI-H1781, 72 h, read-out: IC50 proliferation
[6] = tested on: CUTO18 cells (EGFR exon 20 insertion p.S768_D770dupSVD); experiment: cells; conditions: Homo sapiens, 72 h, read-out: IC50 proliferation
[7] = tested on: CUTO14 cells (EGFR exon 20 insertion p.A767_V769dupASV); experiment: cells; conditions: Homo sapiens, CUTO14, 72 h, read-out: IC50 proliferation
[8] = tested on: H661 cells (HER4 overexpression); experiment: cells; format: cell-based; conditions: Homo sapiens, NCI-H661, 72 h, read-out: IC50 proliferation
[9] = Human plasma protein binding; format: in vitro ADME
[10] = tested on: MDA-MB-175vIII cells (DOC4-NRG1 fusion); experiment: cells; format: cell-based; conditions: Homo sapiens, 72 h, read-out: IC50 proliferation
[11] = Mouse plasma protein binding; format: in vitro ADME
[12] = Afatinib plasma pharmacokinetics and human equivalent dose in nude mice; format: in vivo
[13] = Clinical plasma pharmacokinetics of afatinib; format: in vivo; conditions: human, po, 40 mg
[14] = cited from earlier work

Row | fraction unbound [9] | IC50 [10] | fraction unbound [11] | human equivalent dose (HED) in nude mice ([12]; extrapolation by linear regression to total AUC of 468 ng*hr/mL) | plasma AUCtotal required in mice to replicate human AUCfree ([12]; mice) | AUC [13] | SMILES | IC50 [1] | inhibition of EGFR phosphorylation (pEGFR) [2] | IC50 [3] | IC50 [4] | IC50 [5] | IC50 [6] | IC50 [7] | IC50 [8] | Cmax in patients at steady state ([14]; 40mg PO daily) | plasma AUCtotal ([14]; human, 40 mg PO once daily) | Cmax ([14]; read-out: Cmax in patients at steady state, 40mg PO daily)
1 | – | – | – | – | – | – | C=CC(=O)Nc1cc(Nc2nccc(-c3cn(C)c4ccccc34)n2)c(OC)cc1N(C)CCN(C)C [Osimertinib] | 426 ± 21.5 nM | showed inhibition at higher concentrations | 113 ± 4.4 nM | 188 ± 35.2 nM | 406 nM | 647 ± 6.7 nM | 303 nM | 4518 ± 2 nM | – | – | –
2 | 0.0821 | 1.2 ± 3.1 nM | 0.0577 | 6 mg/kg | 468 ng·h/mL | 27 ng·h/mL | CN(C)C/C=C/C(=O)Nc1cc2c(Nc3ccc(F)c(Cl)c3)ncnc2cc1O[C@H]1CCOC1 [Afatinib] | – | – | 11 ± 2.9 nM | 31 ± 11.4 nM | 66 nM | – | – | – | 38 ng/mL | 324 ng·h/mL | 78 nM
